US20090069301A1, “Acridine and Quinoline Derivatives as Sirtuin Modulators” (Sirtris Pharmaceuticals, Inc., priority 2005, published 2009)

Columns and labels:
SIRT1 = target: T1, SIRT1 (Homo sapiens, UniProt Q96EB6); experiment: Fluorescence polarization or mass spectrometry based assay to identify modulators of SIRT1 activity (p53-based peptide deacetylation); type: biochemical; conditions: activation of SIRT1, Table 4; read-out: ED50 (the source's name);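 also: recombinant His-tagged human SIRT1 deacetylating p53-derived acetylated peptide, detected by fluorescence polarization after trypsin cleavage, signal inversely tracking deacetylase activity, compared against activity without test compound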
T1 sequence (Q96EB6 1-747): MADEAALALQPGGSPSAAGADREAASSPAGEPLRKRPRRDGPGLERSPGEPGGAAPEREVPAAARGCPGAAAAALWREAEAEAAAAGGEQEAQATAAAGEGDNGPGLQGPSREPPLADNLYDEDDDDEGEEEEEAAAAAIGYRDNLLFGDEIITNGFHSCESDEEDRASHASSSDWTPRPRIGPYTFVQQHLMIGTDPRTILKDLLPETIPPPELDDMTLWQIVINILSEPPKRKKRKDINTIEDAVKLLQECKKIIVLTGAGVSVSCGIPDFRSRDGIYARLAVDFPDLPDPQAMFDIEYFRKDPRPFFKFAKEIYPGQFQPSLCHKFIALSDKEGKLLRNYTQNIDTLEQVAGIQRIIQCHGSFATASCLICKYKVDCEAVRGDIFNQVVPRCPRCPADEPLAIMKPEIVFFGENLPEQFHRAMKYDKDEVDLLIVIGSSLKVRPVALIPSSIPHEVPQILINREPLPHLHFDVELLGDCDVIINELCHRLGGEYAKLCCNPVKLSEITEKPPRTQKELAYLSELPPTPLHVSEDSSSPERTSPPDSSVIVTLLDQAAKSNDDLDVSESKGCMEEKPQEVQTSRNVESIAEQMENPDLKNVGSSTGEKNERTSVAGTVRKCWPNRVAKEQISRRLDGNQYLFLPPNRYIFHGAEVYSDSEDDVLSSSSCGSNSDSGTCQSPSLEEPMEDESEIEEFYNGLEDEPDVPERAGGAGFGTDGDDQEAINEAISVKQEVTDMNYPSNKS

human SIRT3 = target: T2, human SIRT3 (Homo sapiens, UniProt Q9NTG7); experiment: Fluorescence polarization assay to identify modulators of SIRT3 activity (Histone H4-based peptide deacetylation); type: biochemical; conditions: activation of SIRT3, Table 6; read-out: ED50 (the source's name)
T2 construct: corresponded to amino acid residues 102-399 of human SIRT3 with an N-terminal His-tag; His-tag (N); made in house; host or cells: E. coli
T2 sequence (Q9NTG7 102-399): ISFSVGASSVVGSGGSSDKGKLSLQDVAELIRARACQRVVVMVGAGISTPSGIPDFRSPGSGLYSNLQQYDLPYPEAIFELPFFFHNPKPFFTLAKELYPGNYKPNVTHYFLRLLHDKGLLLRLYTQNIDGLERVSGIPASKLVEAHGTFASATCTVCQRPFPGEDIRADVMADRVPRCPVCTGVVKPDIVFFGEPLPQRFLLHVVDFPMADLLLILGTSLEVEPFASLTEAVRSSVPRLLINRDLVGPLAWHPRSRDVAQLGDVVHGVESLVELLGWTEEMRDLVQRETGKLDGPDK
Source text: A fluorescence polarization assay was used to identify modulators of SIRT3 activity. The same assay may be used to identify modulators of any sirtuin protein. The assay utilizes a peptide substrate based on a fragment of Histone H4, a known sirtuin deacetylation target. The substrate contains a peptide having 14 amino acid residues as follows: Biotin-GASSHSK(Ac)VLK(MR121) (SEQ ID NO: 3) wherein K(Ac) is an acetylated lysine residue. The peptide is labeled with the fluorophore MR121 (excitation 635 nm/emission 680 nm) at the C-terminus and biotin at the N-terminus.
The peptide substrate is exposed to a sirtuin protein in the presence of NAD^+ to allow deacetylation of the substrate and render it sensitive to cleavage by trypsin. […] The fluorescence polarization signal observed for the full length peptide substrate bound to streptavidin is higher than the fluorescence polarization signal observed for the released MR121 C-terminal fragment. Therefore, the fluorescence polarization obtained is inversely proportional to the level of deacetylation (e.g., the signal is inversely proportional to the activity of the sirtuin protein). Results are read on a microplate fluorescence polarization reader (Molecular Devices Spectramax MD) with appropriate excitation and emission filters. […]

With `O=C(Nc1ccccc1N1CCOCC1)c1cc(-c2ccco2)nc2ccccc12` [Compound 8] the EC50 (SIRT1) was less than 50 µM and the EC50 (human SIRT3) was less than 50 µM.
